Experimental data published in paper PMC4999267, “Characterization of Promiscuous Binding of Phosphor Ligands to Breast-Cancer-Gene 1 (BRCA1) C-Terminal (BRCT): Molecular Dynamics, Free Energy, Entropy and Inhibitor Design” (PLoS Computational Biology, 2016).

Biological target: BRCT(BRCA1) (Homo sapiens, UniProt P38398)
Experiment: fluorescence polarization competition
Assay type: binding
From the text: fluorescence polarization competition on BRCT(BRCA1)

BRCT(BRCA1), sequence (P38398 1646-1859): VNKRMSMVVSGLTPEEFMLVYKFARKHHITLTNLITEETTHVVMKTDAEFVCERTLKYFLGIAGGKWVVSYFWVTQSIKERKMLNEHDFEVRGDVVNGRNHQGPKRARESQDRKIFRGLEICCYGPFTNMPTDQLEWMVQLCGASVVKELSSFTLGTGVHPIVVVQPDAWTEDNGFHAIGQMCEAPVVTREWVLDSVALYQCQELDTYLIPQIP

With CC(=O)N[C@@H](COP(=O)(O)O)C(=O)Nc1cccc(CC(=O)N[C@@H](Cc2ccccc2)C(=O)O)c1 [N1] the IC50 was greater than 250 µM.
